Measurements from patent publication EP1935986B1, “Luminogenic and fluorogenic compounds and methods to detect molecules or conditions” (priority 2005, dated 2006).

Experiments:
[1] = test system: thermostable luciferase (Luc 146-1H2); assay: Residual thermostable luciferase activity after reaction with luciferin derivatives (Steady Glo); type: biochemical
Method: (§1) This stock was used to produce enzyme stock solution having of 200 µg/ml enzyme solution in 1 mg/ml BSA, 200 mM HEPES buffer, pH 8.0, 20 mM MgCl2.
(§2) Solutions were made using a 1 M DTT solution, pH adjusted to 8.0, a 20 mM Coenzyme A solution in water (both described in examples above), a 100 mM ATP solution and water to create the following solutions: Sol'A, 100 µM ATP; Sol'B, 100 µM ATP, 4 mM Coenzyme A; Sol'n C, 100 µM ATP, 400 mM DTT, and; Sol'n D, 100 µM ATP, 4 mM Coenzyme A and 400 mM DTT.
(§3) After assembly, the reactions were initiated by addition of 25 µl of the thermostable luciferase stock solution above and mixing the tube contents. A 50 µl sample was immediately removed and placed in a luminometer tube and the light read and the tube then replaced in a tube rack at room temperature. While the light reading was being taken, a 5 µl sample of the remaining reaction (which was kept at room temperature) was diluted into 495 µl of 50 mM BisTris, pH 6.5, 1 mg/ml BSA, 1 mM EDTA prechilled to 4°C and the tube mixed and placed on ice. The light produced by the samples in the luminometer tubes were re-read at 20, 40, 60, 90 and 120 minutes post enzyme addition. Additional 5 µl samples were taken and diluted as above at 60 and 120 minutes post enzyme addition. Once all these readings and samples were taken, 50 µl of the diluted samples was mixed with 50 µl of Steady Glo in luminometer tubes, the tubes incubated 10 minutes on ice then the light produced was read on a Turner TD 20/20 luminometer.

[2] = test system: thermostable luciferase (Luc 146-1H2); assay: Thermostable luciferase reaction with luciferin derivatives: light readings; type: biochemical
Method: as §1, §2
The following reactions were prepared (Table 47) Table 47
as §3

light values obtained upon addition of the diluted reaction samples into Steady Glo reagent ([1]; Substrate 6.25, + Co A & DTT, Time Sample Taken 0 min): 1836
light values obtained upon addition of the diluted reaction samples into Steady Glo reagent ([1]; Substrate 6.25, + Co A & DTT, Time Sample Taken 60 min): 1625
light values obtained upon addition of the diluted reaction samples into Steady Glo reagent ([1]; Substrate 6.25, + Co A & DTT, Time Sample Taken 120 min): 1622
light values obtained upon addition of the diluted reaction samples into Steady Glo reagent ([1]; Substrate 6.25, + Co A, Time Sample Taken 0 min): 1647
light values obtained upon addition of the diluted reaction samples into Steady Glo reagent ([1]; Substrate 6.25, + Co A, Time Sample Taken 60 min): 976.8
light values obtained upon addition of the diluted reaction samples into Steady Glo reagent ([1]; Substrate 6.25, + Co A, Time Sample Taken 120 min): 921.4
light values obtained upon addition of the diluted reaction samples into Steady Glo reagent ([1]; Substrate 6.25, + DTT, Time Sample Taken 0 min): 1631
light values obtained upon addition of the diluted reaction samples into Steady Glo reagent ([1]; Substrate 6.25, + DTT, Time Sample Taken 60 min): 1544
light values obtained upon addition of the diluted reaction samples into Steady Glo reagent ([1]; Substrate 6.25, + DTT, Time Sample Taken 120 min): 1695
light values obtained upon addition of the diluted reaction samples into Steady Glo reagent ([1]; Substrate 6.25, Alone, Time Sample Taken 0 min): 1402
light values obtained upon addition of the diluted reaction samples into Steady Glo reagent ([1]; Substrate 6.25, Alone, Time Sample Taken 60 min): 1158
light values obtained upon addition of the diluted reaction samples into Steady Glo reagent ([1]; Substrate 6.25, Alone, Time Sample Taken 120 min): 1073
light values obtained upon addition of the diluted reaction samples into Steady Glo reagent ([1]; Substrate 25, + Co A & DTT, Time Sample Taken 0 min): 529.6
light values obtained upon addition of the diluted reaction samples into Steady Glo reagent ([1]; Substrate 25, + Co A & DTT, Time Sample Taken 60 min): 1268
light values obtained upon addition of the diluted reaction samples into Steady Glo reagent ([1]; Substrate 25, + Co A & DTT, Time Sample Taken 120 min): 1329
light values obtained upon addition of the diluted reaction samples into Steady Glo reagent ([1]; Substrate 25, + Co A, Time Sample Taken 0 min): 1547
light values obtained upon addition of the diluted reaction samples into Steady Glo reagent ([1]; Substrate 25, + Co A, Time Sample Taken 60 min): 777.5
light values obtained upon addition of the diluted reaction samples into Steady Glo reagent ([1]; Substrate 25, + Co A, Time Sample Taken 120 min): 588.7
light values obtained upon addition of the diluted reaction samples into Steady Glo reagent ([1]; Substrate 25, + DTT, Time Sample Taken 0 min): 1116
light values obtained upon addition of the diluted reaction samples into Steady Glo reagent ([1]; Substrate 25, + DTT, Time Sample Taken 60 min): 1372
light values obtained upon addition of the diluted reaction samples into Steady Glo reagent ([1]; Substrate 25, + DTT, Time Sample Taken 120 min): 1393
light values obtained upon addition of the diluted reaction samples into Steady Glo reagent ([1]; Substrate 25, Alone, Time Sample Taken 0 min): 1345
light values obtained upon addition of the diluted reaction samples into Steady Glo reagent ([1]; Substrate 25, Alone, Time Sample Taken 60 min): 973.4
light values obtained upon addition of the diluted reaction samples into Steady Glo reagent ([1]; Substrate 25, Alone, Time Sample Taken 120 min): 860.3
light readings from the reaction samples ([2]; substrate 6.25 (L'in-BE: 6.26), + Co A & DTT, Time 0 min): 77.35
light readings from the reaction samples ([2]; substrate 6.25 (L'in-BE: 6.26), + Co A & DTT, Time 20 min): 7.958
light readings from the reaction samples ([2]; substrate 6.25 (L'in-BE: 6.26), + Co A & DTT, Time 40 min): 3.656
light readings from the reaction samples ([2]; substrate 6.25 (L'in-BE: 6.26), + Co A & DTT, Time 60 min): 2.312
light readings from the reaction samples ([2]; substrate 6.25 (L'in-BE: 6.26), + Co A & DTT, Time 90 min): 1.414
light readings from the reaction samples ([2]; substrate 6.25 (L'in-BE: 6.26), + Co A & DTT, Time 120 min): 1.134
light readings from the reaction samples ([2]; substrate 6.25 (L'in-BE: 6.26), + Co A, Time 0 min): 1829
light readings from the reaction samples ([2]; substrate 6.25 (L'in-BE: 6.26), + Co A, Time 20 min): 114
light readings from the reaction samples ([2]; substrate 6.25 (L'in-BE: 6.26), + Co A, Time 40 min): 57.82
light readings from the reaction samples ([2]; substrate 6.25 (L'in-BE: 6.26), + Co A, Time 60 min): 37.53
light readings from the reaction samples ([2]; substrate 6.25 (L'in-BE: 6.26), + Co A, Time 90 min): 24.66
light readings from the reaction samples ([2]; substrate 6.25 (L'in-BE: 6.26), + Co A, Time 120 min): 17.02
light readings from the reaction samples ([2]; substrate 6.25 (L'in-BE: 6.26), + DTT, Time 0 min): 72.52
light readings from the reaction samples ([2]; substrate 6.25 (L'in-BE: 6.26), + DTT, Time 20 min): 5.903
light readings from the reaction samples ([2]; substrate 6.25 (L'in-BE: 6.26), + DTT, Time 40 min): 3.073
light readings from the reaction samples ([2]; substrate 6.25 (L'in-BE: 6.26), + DTT, Time 60 min): 2.089
light readings from the reaction samples ([2]; substrate 6.25 (L'in-BE: 6.26), + DTT, Time 90 min): 1.431
light readings from the reaction samples ([2]; substrate 6.25 (L'in-BE: 6.26), + DTT, Time 120 min): 1.125
light readings from the reaction samples ([2]; substrate 6.25 (L'in-BE: 6.26), Alone, Time 0 min): 121
light readings from the reaction samples ([2]; substrate 6.25 (L'in-BE: 6.26), Alone, Time 20 min): 5.884
light readings from the reaction samples ([2]; substrate 6.25 (L'in-BE: 6.26), Alone, Time 40 min): 3.316
light readings from the reaction samples ([2]; substrate 6.25 (L'in-BE: 6.26), Alone, Time 60 min): 2.352
light readings from the reaction samples ([2]; substrate 6.25 (L'in-BE: 6.26), Alone, Time 90 min): 1.569
light readings from the reaction samples ([2]; substrate 6.25 (L'in-BE: 6.26), Alone, Time 120 min): 1.154
light readings from the reaction samples ([2]; substrate 25, + Co A & DTT, Time 0 min): 57.98
light readings from the reaction samples ([2]; substrate 25, + Co A & DTT, Time 20 min): 5.721
light readings from the reaction samples ([2]; substrate 25, + Co A & DTT, Time 40 min): 3.272
light readings from the reaction samples ([2]; substrate 25, + Co A & DTT, Time 60 min): 2.192
light readings from the reaction samples ([2]; substrate 25, + Co A & DTT, Time 90 min): 1.379
light readings from the reaction samples ([2]; substrate 25, + Co A & DTT, Time 120 min): 1.174
light readings from the reaction samples ([2]; substrate 25, + Co A, Time 0 min): 489.2
light readings from the reaction samples ([2]; substrate 25, + Co A, Time 20 min): 45.45
light readings from the reaction samples ([2]; substrate 25, + Co A, Time 40 min): 25.08
light readings from the reaction samples ([2]; substrate 25, + Co A, Time 60 min): 16.96
light readings from the reaction samples ([2]; substrate 25, + Co A, Time 90 min): 11.03
light readings from the reaction samples ([2]; substrate 25, + Co A, Time 120 min): 7.309
light readings from the reaction samples ([2]; substrate 25, + DTT, Time 0 min): 56.59
light readings from the reaction samples ([2]; substrate 25, + DTT, Time 20 min): 3.761
light readings from the reaction samples ([2]; substrate 25, + DTT, Time 40 min): 2.196
light readings from the reaction samples ([2]; substrate 25, + DTT, Time 60 min): 1.668
light readings from the reaction samples ([2]; substrate 25, + DTT, Time 90 min): 1.274
light readings from the reaction samples ([2]; substrate 25, + DTT, Time 120 min): 1.157
light readings from the reaction samples ([2]; substrate 25, Alone, Time 0 min): 59.87
light readings from the reaction samples ([2]; substrate 25, Alone, Time 20 min): 3.176
light readings from the reaction samples ([2]; substrate 25, Alone, Time 40 min): 1.919
light readings from the reaction samples ([2]; substrate 25, Alone, Time 60 min): 1.305
light readings from the reaction samples ([2]; substrate 25, Alone, Time 90 min): 1.178
light readings from the reaction samples ([2]; substrate 25, Alone, Time 120 min): 1.03
light readings from the reaction samples ([2]; substrate 100, + Co A & DTT, Time 0 min): 25.41
light readings from the reaction samples ([2]; substrate 100, + Co A & DTT, Time 20 min): 3.278
light readings from the reaction samples ([2]; substrate 100, + Co A & DTT, Time 40 min): 2.027
light readings from the reaction samples ([2]; substrate 100, + Co A & DTT, Time 60 min): 1.666
light readings from the reaction samples ([2]; substrate 100, + Co A & DTT, Time 90 min): 1.27
light readings from the reaction samples ([2]; substrate 100, + Co A & DTT, Time 120 min): 1.157
light readings from the reaction samples ([2]; substrate 100, + Co A, Time 0 min): 97.88
light readings from the reaction samples ([2]; substrate 100, + Co A, Time 20 min): 10.3
light readings from the reaction samples ([2]; substrate 100, + Co A, Time 40 min): 7.127
light readings from the reaction samples ([2]; substrate 100, + Co A, Time 60 min): 5.562
light readings from the reaction samples ([2]; substrate 100, + Co A, Time 90 min): 3.969
light readings from the reaction samples ([2]; substrate 100, + Co A, Time 120 min): 2.845
light readings from the reaction samples ([2]; substrate 100, + DTT, Time 0 min): 22.47
light readings from the reaction samples ([2]; substrate 100, + DTT, Time 20 min): 2.233
light readings from the reaction samples ([2]; substrate 100, + DTT, Time 40 min): 1.292
light readings from the reaction samples ([2]; substrate 100, + DTT, Time 60 min): 1.164
light readings from the reaction samples ([2]; substrate 100, + DTT, Time 90 min): 1.093
light readings from the reaction samples ([2]; substrate 100, + DTT, Time 120 min): 0.958
light readings from the reaction samples ([2]; substrate 100, Alone, Time 0 min): 20.46
light readings from the reaction samples ([2]; substrate 100, Alone, Time 20 min): 1.18
light readings from the reaction samples ([2]; substrate 100, Alone, Time 40 min): 0.868
light readings from the reaction samples ([2]; substrate 100, Alone, Time 60 min): 0.788
light readings from the reaction samples ([2]; substrate 100, Alone, Time 90 min): 0.627
light readings from the reaction samples ([2]; substrate 100, Alone, Time 120 min): 0.544
SMILES: O=C(O)[C@H]1CSC(c2nc3ccc(OCCCl)cc3s2)=N1 [L'in-CEE]
